Reference: ChEMBL document CHEMBL1201862, “PubChem BioAssay data set” (2004)
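Each compound was tested at five concentrations against cells in 96-well plates for 48 hours. Here, GI50 denotes the concentration required for 50% inhibition of growth.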 Activity calls are given as the source filed them. No stated cut-off is given here; in the data, active = GI50 up to about 1.1 µM and inactive = higher.

Experiments:
Assay in all cases: inhibition of tumour cell growth, NCI panel, 48 h
786-0 = tested on: 786-0
A498 = tested on: A498
A549 = tested on: A549
CAKI-1 = tested on: CAKI-1
CCRF-CEM = tested on: CCRF-CEM
COLO 205 = tested on: COLO 205
DLD-1 = tested on: DLD-1
DMS-273 = tested on: DMS-273
EKVX = tested on: EKVX
HCC 2998 = tested on: HCC 2998
HCT-116 = tested on: HCT-116
HCT-15 = tested on: HCT-15
HL-60 = tested on: HL-60
HOP-62 = tested on: HOP-62
HOP-92 = tested on: HOP-92
HT-29 = tested on: HT-29
IGROV-1 = tested on: IGROV-1
K562 = tested on: K562
KM12 = tested on: KM12
LOX IMVI = tested on: LOX IMVI
LXFL 529 = tested on: LXFL 529
M14 = tested on: M14
M19-MEL = tested on: M19-MEL
MOLT-4 = tested on: MOLT-4
Malme-3M = tested on: Malme-3M
NCI-H23 = tested on: NCI-H23
NCI-H460 = tested on: NCI-H460
NCI-H522 = tested on: NCI-H522
OVCAR-3 = tested on: OVCAR-3
OVCAR-4 = tested on: OVCAR-4
OVCAR-8 = tested on: OVCAR-8
RPMI-8226 = tested on: RPMI-8226
RXF 393 = tested on: RXF 393
RXF 631 = tested on: RXF 631
SF-268 = tested on: SF-268
SF-295 = tested on: SF-295
SF-539 = tested on: SF-539
SK-MEL-28 = tested on: SK-MEL-28
SK-MEL-2 = tested on: SK-MEL-2
SK-MEL-5 = tested on: SK-MEL-5
SK-OV-3 = tested on: SK-OV-3
SN12C = tested on: SN12C
SNB-19 = tested on: SNB-19
SNB-75 = tested on: SNB-75
SNB-78 = tested on: SNB-78
SW-620 = tested on: SW-620
TK-10 = tested on: TK-10
U-251 = tested on: U-251
UACC-257 = tested on: UACC-257
UACC-62 = tested on: UACC-62
UO-31 = tested on: UO-31
XF498 = tested on: XF498
ACHN = tested on: ACHN
DMS-114 = tested on: DMS-114
KM-20L2 = tested on: KM-20L2
SR = tested on: SR
HOP-18 = tested on: HOP-18
NCI-H226 = tested on: NCI-H226
OVCAR-5 = tested on: OVCAR-5

## O=C1CC[C@H]2CNC(=O)C[C@H]2C1
786-0
  GI50: > 100 µM (inactive)
A498
  GI50: > 100 µM (inactive)
A549
  GI50: > 100 µM (inactive)
CAKI-1
  GI50: > 100 µM (inactive)
CCRF-CEM
  GI50: > 100 µM (inactive)
COLO 205
  GI50: > 100 µM (inactive)
DLD-1
  GI50: > 100 µM (inactive)
DMS-273
  GI50: > 100 µM (inactive)
EKVX
  GI50: > 100 µM (inactive)
HCC 2998
  GI50: > 100 µM (inactive)
HCT-116
  GI50: > 100 µM (inactive)
HCT-15
  GI50: > 100 µM
HL-60
  GI50: > 100 µM (inactive)
HOP-62
  GI50: > 100 µM (inactive)
HOP-92
  GI50: > 100 µM (inactive)
HT-29
  GI50: > 100 µM (inactive)
IGROV-1
  GI50: > 100 µM (inactive)
K562
  GI50: > 100 µM (inactive)
KM12
  GI50: > 100 µM (inactive)
LOX IMVI
  GI50: > 100 µM (inactive)
LXFL 529
  GI50: > 100 µM (inactive)
M14
  GI50: > 100 µM (inactive)
M19-MEL
  GI50: > 100 µM (inactive)
MOLT-4
  GI50: > 100 µM (inactive)
Malme-3M
  GI50: > 100 µM (inactive)
NCI-H23
  GI50: > 100 µM (inactive)
NCI-H460
  GI50: > 100 µM (inactive)
NCI-H522
  GI50: > 100 µM (inactive)
OVCAR-3
  GI50: > 100 µM (inactive)
OVCAR-4
  GI50: > 100 µM (inactive)
OVCAR-8
  GI50: > 100 µM (inactive)
RPMI-8226
  GI50: > 100 µM (inactive)
RXF 393
  GI50: > 100 µM (inactive)
RXF 631
  GI50: > 100 µM (inactive)
SF-268
  GI50: > 100 µM (inactive)
SF-295
  GI50: > 100 µM (inactive)
SF-539
  GI50: > 100 µM (inactive)
SK-MEL-28
  GI50: > 100 µM (inactive)
SK-MEL-2
  GI50: > 100 µM (inactive)
SK-MEL-5
  GI50: > 100 µM (inactive)
SK-OV-3
  GI50: > 100 µM (inactive)
SN12C
  GI50: > 100 µM (inactive)
SNB-19
  GI50: > 100 µM (inactive)
SNB-75
  GI50: > 100 µM (inactive)
SNB-78
  GI50: > 100 µM (inactive)
SW-620
  GI50: > 100 µM (inactive)
TK-10
  GI50: > 100 µM (inactive)
U-251
  GI50: > 100 µM (inactive)
UACC-257
  GI50: > 100 µM (inactive)
UACC-62
  GI50: > 100 µM (inactive)
UO-31
  GI50: > 100 µM (inactive)
XF498
  GI50: > 100 µM (inactive)

## CNS(=O)(=O)NNS(=O)(=O)c1ccc(OC)cc1
786-0
  GI50: > 100 µM (inactive)
A498
  GI50: > 100 µM (inactive)
A549
  GI50: > 100 µM (inactive)
ACHN
  GI50: > 100 µM (inactive)
CAKI-1
  GI50: > 100 µM (inactive)
CCRF-CEM
  GI50: > 100 µM (inactive)
COLO 205
  GI50: > 100 µM (inactive)
DLD-1
  GI50: > 100 µM (inactive)
DMS-114
  GI50: > 100 µM (inactive)
DMS-273
  GI50: > 100 µM (inactive)
EKVX
  GI50: > 100 µM (inactive)
HCC 2998
  GI50: > 100 µM (inactive)
HCT-116
  GI50: > 100 µM (inactive)
HCT-15
  GI50: > 100 µM
HL-60
  GI50: > 100 µM (inactive)
HOP-62
  GI50: > 100 µM (inactive)
HT-29
  GI50: > 100 µM (inactive)
IGROV-1
  GI50: > 100 µM (inactive)
K562
  GI50: > 100 µM (inactive)
KM-20L2
  GI50: > 100 µM (inactive)
KM12
  GI50: > 100 µM (inactive)
LOX IMVI
  GI50: > 100 µM (inactive)
LXFL 529
  GI50: > 100 µM (inactive)
M14
  GI50: > 100 µM (inactive)
M19-MEL
  GI50: > 100 µM (inactive)
MOLT-4
  GI50: > 100 µM (inactive)
Malme-3M
  GI50: > 100 µM (inactive)
NCI-H23
  GI50: > 100 µM (inactive)
NCI-H460
  GI50: > 100 µM (inactive)
NCI-H522
  GI50: > 100 µM (inactive)
OVCAR-3
  GI50: > 100 µM (inactive)
OVCAR-4
  GI50: > 100 µM (inactive)
OVCAR-8
  GI50: > 100 µM (inactive)
RPMI-8226
  GI50: > 100 µM (inactive)
RXF 393
  GI50: > 100 µM (inactive)
RXF 631
  GI50: > 100 µM (inactive)
SF-268
  GI50: > 100 µM (inactive)
SF-295
  GI50: > 100 µM (inactive)
SF-539
  GI50: > 100 µM (inactive)
SK-MEL-2
  GI50: > 100 µM (inactive)
SK-MEL-5
  GI50: > 100 µM (inactive)
SK-OV-3
  GI50: > 100 µM (inactive)
SNB-19
  GI50: > 100 µM (inactive)
SNB-75
  GI50: > 100 µM (inactive)
SR
  GI50: > 100 µM (inactive)
SW-620
  GI50: > 100 µM (inactive)
U-251
  GI50: > 100 µM (inactive)
UACC-257
  GI50: > 100 µM (inactive)
UACC-62
  GI50: > 100 µM (inactive)
UO-31
  GI50: > 100 µM (inactive)
XF498
  GI50: > 100 µM (inactive)

## CC(C)(C)C(=O)C1CC(=O)c2ccccc2C1=O (configuration not stated)
786-0
  GI50: 32.6 µM (inactive)
A498
  GI50: 42.3 µM (inactive)
A549
  GI50: 38.2 µM (inactive)
ACHN
  GI50: 44.7 µM (inactive)
CAKI-1
  GI50: 39.6 µM (inactive)
CCRF-CEM
  GI50: 33.4 µM (inactive)
COLO 205
  GI50: 31.8 µM (inactive)
DLD-1
  GI50: 30.4 µM (inactive)
DMS-114
  GI50: 33.9 µM (inactive)
EKVX
  GI50: 32.4 µM (inactive)
HCC 2998
  GI50: 23.4 µM (inactive)
HCT-116
  GI50: 21.4 µM (inactive)
HL-60
  GI50: 20.7 µM (inactive)
HOP-18
  GI50: 37.5 µM (inactive)
HOP-62
  GI50: 25.2 µM (inactive)
HOP-92
  GI50: 24.8 µM (inactive)
IGROV-1
  GI50: 33.7 µM (inactive)
K562
  GI50: 40.6 µM (inactive)
KM-20L2
  GI50: 38 µM (inactive)
KM12
  GI50: 31.8 µM (inactive)
LOX IMVI
  GI50: 40.8 µM (inactive)
M14
  GI50: 39.3 µM (inactive)
M19-MEL
  GI50: 32.9 µM (inactive)
MOLT-4
  GI50: 27.8 µM (inactive)
Malme-3M
  GI50: 16.3 µM (inactive)
NCI-H226
  GI50: 35.2 µM (inactive)
NCI-H23
  GI50: 20.7 µM (inactive)
NCI-H460
  GI50: 29.7 µM (inactive)
NCI-H522
  GI50: 23.6 µM (inactive)
OVCAR-3
  GI50: 24.3 µM (inactive)
OVCAR-4
  GI50: 33 µM (inactive)
OVCAR-5
  GI50: 37.1 µM (inactive)
OVCAR-8
  GI50: 37 µM (inactive)
RPMI-8226
  GI50: 23 µM (inactive)
RXF 393
  GI50: 22.2 µM (inactive)
RXF 631
  GI50: 36.7 µM (inactive)
SF-268
  GI50: 21.8 µM (inactive)
SF-295
  GI50: 36.2 µM (inactive)
SF-539
  GI50: 34.3 µM (inactive)
SK-MEL-28
  GI50: 20.5 µM (inactive)
SK-MEL-2
  GI50: 10.6 µM (inactive)
SK-MEL-5
  GI50: 32.4 µM (inactive)
SK-OV-3
  GI50: 27.1 µM (inactive)
SN12C
  GI50: 28.2 µM (inactive)
SNB-19
  GI50: 24 µM (inactive)
SNB-75
  GI50: 5.98 µM (inactive)
SNB-78
  GI50: 27.5 µM (inactive)
SW-620
  GI50: 32.4 µM (inactive)
TK-10
  GI50: 34.1 µM (inactive)
U-251
  GI50: 34 µM (inactive)
UACC-257
  GI50: 18.2 µM (inactive)
UACC-62
  GI50: 25.8 µM (inactive)
UO-31
  GI50: 21.7 µM (inactive)
XF498
  GI50: 34.4 µM (inactive)
